Publication PMC10687119, “Quaternary Ammonium Salts of Cationic Lipopeptides with Lysine Residues — Synthesis, Antimicrobial, Hemolytic and Cytotoxic Activities” (Probiotics and Antimicrobial Proteins, 2023)
Values after ≈ are worked out from the molar mass of the structure shown. Where a SMILES comes first, the peptide text is derived from it. [ ]: non-standard residue; d: D form. The star is where a group is joined. Lys(Me3) = C[N+](C)(C)CCCC[C@H](N)C(=O)O; Myristoyl = CCCCCCCCCCCCCC(=O)*

Tests used:
[1] = test system: human keratinocytes; design: method as in PMID 33003569; conditions: toxicity towards human keratinocytes ref 3; in µg/mL; cited from earlier work
[2] = cited from earlier work
[3] = test system: P. aeruginosa ATCC 9027; assay type: cell-based, Pseudomonas aeruginosa; conditions: ATCC 9027, 18 h
Experimental: (§1) The Acinetobacter baumannii ATCC BAA-1605, Enterococcus faecium ATCC 700221, Klebsiella aerogenes ATCC 13048, Klebsiella pneumoniae ATCC 700603, Pseudomonas aeruginosa ATCC 9027, Staphylococcus aureus ATCC 33591, Candida glabrata ATCC 15126 strains were acquired from the American Type Culture Collection (ATCC, Manassas, USA). All the strains were stored at −80 °C in Roti-Store cryo vials (Carl Roth GmbH, Germany) and before the tests were transferred into fresh Mueller–Hinton broth (MHB, Becton Dickinson, Poland) for bacteria or RPMI-1640 (Sigma-Aldrich, Germany) for fungi and incubated for 24 h at 37 °C. Then, the cultures were cultured on the Mueller–Hinton agar (BioMaxima, Poland) or Sabouraud dextrose agar (SDA, BioMaxima) plates, respectively, and incubated as just mentioned. For microbiological assays, a minimum of three to five well-isolated colonies of the same morphological type were carefully picked from the agar cultures. These colonies were transferred with sterile loop into fresh microbiological medium and incubated with shaking (100 rpm) at 37 °C until they reached logarithmic phase of growth. Cell densities for all assays were adjusted through spectrophotometric measurements (Multiskan GO Microplate Spectrophotometer, Thermo Fisher Scientific, Finland) at 600 and 530 nm for bacteria and fungi, respectively.
(§2) The MICs were determined by broth microdilution method according to the Clinical and Laboratory Standard Institute guidelines. For this purpose, initial inoculums of bacteria (5 × 10^5 CFU/mL) in MHB and yeasts (2 × 10^3 CFU/mL) in RPMI-1640 with 2% D-glucose were exposed to the ranging concentration of lipopeptides (1–512 μg/mL) and incubated at 37 °C for 18 h and 24 h, respectively. The experiments were conducted on 96-well microtiter polystyrene plates (Kartell, Italy). The growth was assessed visually after incubation and the MIC was assumed as the lowest peptide concentration at which a noticeable growth of microorganisms was inhibited. Benzalkonium chloride (Sigma-Aldrich, Germany) was used as reference compound. All experiments were conducted in triplicate.

[4] = test system: E. faecium ATCC 700221; assay type: cell-based, Enterococcus faecium; conditions: ATCC 700221, 18 h
Experimental: as §1, §2

[5] = test system: human keratinocyte cell line (HaCaT); assay type: cell-based; conditions: 24 h
Experimental: The immortalized human keratinocyte cell line (HaCaT), obtained from CLS (Cell Line Service, Germany) was cultured in DMEM-high glucose (Dulbecco’s Modified Eagle Medium) supplemented with 10% fetal bovine serum, 2 mM L-glutamine, 100 U/mL penicillin and 100 μg/mL streptomycin (Sigma-Aldrich; Merck KGaA) at 37 °C in a humidified atmosphere with 5% CO2. Cells were trypsinized, and the medium was renewed 2–3 times per week. The cytotoxicity of compounds was assessed by colorimetric CellTilter 96® Aqueous One Solution Cell Proliferation Assay (Promega, USA), containing a tetrazolium compound according to the manufacturer’s instructions. In brief, 7 × 10^3 HaCaT cells per well were plated on 96-well plates and incubated per night to adhere to the cultured dishes. After that time, different concentrations of the tested compounds ranging from 512 to 1 μg/mL were applied to the wells. Every compound was medium-soluble at 37 °C; thus, the non-treated cells were negative control. Serial dilutions of the tested compounds were always prepared before use. Cells were incubated with drugs for 24 h, and then, 20 μL of the CellTiter 96®AqueousOne Solution Reagent was added to each well containing treated cells in 100 µl of culture medium. After 4 h of incubation at 37 °C, the absorbance at 490 nm was recorded using a microplate reader (Epoch, BioTek Instruments, USA). The quantity of formazan product as measured by the amount of 490 nm absorbance is directly proportional to the number of living cells in culture. Benzalkonium chloride (Sigma-Aldrich, Germany) was used as reference compound. At least three independent experiments with two replicates were conducted for each concentration of a compound, and the IC50 values were calculated using GraphPad Prism 8 software.

[6] = test system: S. aureus ATCC 33591; assay type: cell-based, Staphylococcus aureus; conditions: ATCC 33591, 18 h
Experimental: as §1, §2

[7] = test system: A. baumannii ATCC BAA 1605; assay type: cell-based, Acinetobacter baumannii; conditions: ATCC BAA 1605, 18 h
Experimental: as §1, §2

[8] = test system: K. pneumoniae ATCC 700603; assay type: cell-based, Klebsiella pneumoniae; conditions: ATCC 700603, 18 h
Experimental: as §1, §2

[9] = test system: human red blood cells (RBCs); assay type: cell-based; conditions: red cells of human
Experimental: The hemolysis assay was conducted using a procedure described previously. For this purpose, human red blood cells (RBCs) isolated from K2EDTA Single Donor Human Whole blood (Innovative Research, Inc, MI, USA) were rinsed with Phosphate-buffer saline (PBS, pH 7.4±0.05, composition - KCl 2.7 mM, NaCl 140 mM, phosphate 10mM; AppliChem GmbH, Germany) by centrifugation for 10 min at 800 × g. This process was repeated 3 times and the RBCs were resuspended in PBS. Then, the stock solution of RBCs was added to the serial dilution of lipopeptides on 96-well polystyrene plates to reach a final volume of 100 μL with a 4% concentration of erythrocytes (v/v) and a concentration range of 1-512 μg/mL of tested compounds. The control wells for 0% and 100% hemolysis consisted of RBCs suspended in PBS and 1% of Triton X-100 (Sigma-Aldrich, Germany), respectively. Benzalkonium chloride (Sigma-Aldrich, Germany) was used as reference compound. Subsequently, the plates were incubated for 60 min at 37 °C and then centrifuged at 800 × g for 10 min at 4 °C (Sorvall ST […] Centrifuge, Thermo Scientific). The supernatant was carefully […] to new microtiter plates. The release of hemoglobin was monitored absorbance measurements at 540 nm (MultiskanTM GO Microplate Spectrophotometer, Thermo Scientific). All experiments were conducted in triplicate. HC50 was calculated using an ic50.tk tool.

[10] = test system: C. glabrata ATCC 15126; assay type: cell-based, Candida glabrata; conditions: ATCC 15126, 24 h
Experimental: as §1, §2

[11] = test system: K. aerogenes ATCC 13048; assay type: cell-based, Klebsiella aerogenes; conditions: ATCC 13048, 18 h
Experimental: as §1, §2

[12] = test system: S. aureus; design: method as in PMID 20374251; conditions: against S. aureus ref 5; cited from earlier work

Compound | IC50 [1] | solubility in water [2] | MIC [3] | MIC [4] | IC50 [5] | MIC [6] | MIC [7] | MIC [8] | HC50 [9] | MIC [10] | MIC [11] | MIC [12]
C16-CRRKKC-NH2 | 21.3 ± 8.2 |  |  |  |  |  |  |  |  |  |  | 
C[N+](C)(C)CC(=O)O [betaine, N,N,N-trimethylglycine] |  | 611 mg/mL |  |  |  |  |  |  |  |  |  | 
C16-RRKK-NH2 [Peptide C16-RRKK-NH2] | 8.1 ± 1.1 |  |  |  |  |  |  |  |  |  |  | 
CCCCCCCCCCCCCC(=O)N[C@@H](CCCCN)C(=O)N[C@@H](CCCCN)C(=O)N[C@@H](CCCCN)C(N)=O [Peptide 3M, C14-KKK-NH2] |  |  | 128 µg/mL (≈ 209 µM) | 32 µg/mL (≈ 52.3 µM) | 237.60 ± 31.18 µg/mL (≈ 388 µM) | 64 µg/mL (≈ 105 µM) | 512 µg/mL (≈ 837 µM) | >512 µg/mL | >512 µg/mL | 512 µg/mL (≈ 837 µM) | 256 µg/mL (≈ 418 µM) | 
CCCCCCCCCCCCCC(=O)N[C@@H](CCCC[N+](C)(C)C)C(=O)N[C@@H](CCCC[N+](C)(C)C)C(=O)N[C@@H](CCCC[N+](C)(C)C)C(=O)N[C@@H](CCCC[N+](C)(C)C)C(N)=O [Peptide 4Mq, C14-K(Me3)^+K(Me3)^+K(Me3)^+K(Me3)^+-NH2] (Myristoyl-[Lys(Me3)][Lys(Me3)][Lys(Me3)][Lys(Me3)]-NH2) |  |  | >512 µg/mL | 128 µg/mL | >512 µg/mL | >512 µg/mL | >512 µg/mL | >512 µg/mL | >512 µg/mL | >512 µg/mL | >512 µg/mL | 
CCCCCCCCCCCCCC(=O)N[C@@H](CCCCN)C(=O)N[C@@H](CCCCN)C(=O)N[C@@H](CCCCN)C(=O)N[C@@H](CCCCN)C(N)=O [Peptide 4M, C14-KKKK-NH2] (Myristoyl-KKKK-NH2) |  |  | 256 µg/mL (≈ 346 µM) | 16 µg/mL (≈ 21.6 µM) | 252.20 ± 36.68 µg/mL (≈ 341 µM) | 32 µg/mL (≈ 43.2 µM) | 512 µg/mL (≈ 692 µM) | >512 µg/mL | >512 µg/mL | 512 µg/mL (≈ 692 µM) | 256 µg/mL (≈ 346 µM) | 
C12-Orn-Orn-Trp-Trp-NH2 |  |  |  |  |  |  |  |  |  |  |  | 0.95 to 1.95 µg/mL
CCCCCCCCCCCCCC(=O)N[C@@H](CCCC[N+](C)(C)C)C(N)=O [Peptide 1Mq, C14-K(Me3)^+-NH2] |  |  | 128 µg/mL | 32 µg/mL | 24.81 ± 3.88 µg/mL | 32 µg/mL | 128 µg/mL | >512 µg/mL | 88.25 ± 1.57 µg/mL | 32 µg/mL | 256 µg/mL | 
